# Results reported in patent EP0107350A1, “Sulfon amides” (Beecham Wuelfing GmbH & Co KG, priority 1982, dated 1984).
# Tested on: Guinea pigs
# Assay: Electrostimulation test (antiarrhythmic effect; voltage needed to induce extrasystoles/arrhythmias by electrostimulation of the right ventricle)
# Type: in vivo
# Details: anaesthetized Guinea pigs (Urethane 1.2 g/kg i.p.), substances given intraduodenally 30 min before stimulation; 6 treated vs 6 control animals; * = statistically significant p<0.05; dose not given
# Procedure: According to the method described by […]. and PAPP, G J., (Naunyn-Schmiedebergs Arch. exp. Path. Pharmak. 245, 70 (1963), arrhythmias are induced in Guinea pigs by electostimulation of the right ventricle of the heart. The animals are anaesthetized with Urethane (1.2 g/kg i.p.) and artificially respired before a needle electrode is inserted in the right ventricle of the heart. Substances are given intraduodenally 30 min before the stimulation. The voltage needed for induction of extrasystoles in 6 control animals (n=6) is compared with that required for induction of arrhythmias in 6 treated animals (n=6). The difference is statistically evaluated by the unpaired t-test (STUDENT). This method was used to evaluate the compounds of the present invention. In Tables 1 and 2, ^* means statistically significant p<0.05.
row,Compound,% Increase in Test Voltage
1,Cc1cc(C)c(S(=O)(=O)NC(C)CCCN2CC(C)CC2C)c(C)c1 (stereo not shown) [(3)],87.7* %
2,CC1CCCCN1CC(O)CNS(=O)(=O)c1cc(Cl)c(Cl)cc1Cl (stereo not shown) [(4)],60.6* %
3,Cc1cc(C)c(S(=O)(=O)NC(C)CCCN2CCCCC2C)c(C)c1 (stereo not shown) [(1)],89.4* %
4,Cc1cc(C)c(S(=O)(=O)NCC(O)CN2CC(C)CC2C)c(C)c1 (stereo not shown) [(6)],12.1* %
5,"CC(CN1CCCCC1)NS(=O)(=O)c1cc(Cl)c(Cl)cc1Cl.Cl (stereo not shown) [(2), 1-[2-(2,4,5-trichlorobenzenesulphonamido)-propyl] piperidinium chloride]",29.6* %
6,Cc1cc(C)c(S(=O)(=O)NCC(O)CN2CCCCC2C)c(C)c1 (stereo not shown) [(7)],13.4* %
7,Cc1cc(C)c(S(=O)(=O)NCC(O)CN2CCCC2)c(C)c1 (stereo not shown) [(5)],29.5* %
